Measured values published in US11247993B2, “Pyridone derivative, composition and use as antiviral drug thereof” (priority 2018, dated 2022).
Where two headings read alike, the source gives them in different places.

Tests used:
[1] = test system: influenza virus A/PR/8/34 (H1N1); assay: organism not typed; format: cell-based; settings: 120 h
in vitro = format: cell-based; settings: dog
Method: Method for cytotoxicity study: The cytotoxicity assay and antiviral activity assay of the compounds were performed in parallel, except for the absence of virus, other experimental conditions were consistent with the antiviral activity assay. After 5 days of culture, the cell viability was measured using the cell viability detection kit CCK8. Raw data were used for calculating compound cytotoxicity (CC50) (see Table 1 for results).

in vivo = assay: in vivo; parameters: species or system SD rats; settings: SD, rat, iv, 0.25 mg/kg
Method: Intravenous injection: about 2 mg of Compound 11-5, Compound 11-6 and Compound 1-77 were accurately weighed out and added with appropriate amount of DMA, followed by vortex to a clean solution. An appropriate volume of 30% Solutol HS-15 aqueous solution and saline were added and vortexed, so that DMA: 30% Solutol HS-15: saline was 20:20:60 (v/v/v). The solution was filtered to give a 0.05 mg·mL^−1 pharmaceutical preparation. SD rats were given a single injection of 0.25 mg·kg^−1 of Compounds 11-5, 11-6 and 1-77 intravenously. 0.20 mL of blood was collected from the jugular vein before administration and 0.083 h, 0.25 h, 0.5 h, 1 h, 2 h, 4 h, 8 h, 12 h and 24 h after administration, and placed in an EDTA-K2 anticoagulation tube. 150 μL of whole blood was accurately pipetted immediately, and added into a test tube to which 450 μL of acetonitrile has been added to precipitate proteins, and the tube was vortexed, and placed on wet ice. It was stored in a −90˜−60° C. refrigerator for biological sample analysis. The concentration of the corresponding compound in the plasma of S-D rats was determined by LC-MS/MS analysis. The corresponding pharmacokinetic parameters were calculated using a non-compartmental model in Pharsight Phoenix 7.0.

[2] = test system: influenza A virus (H1N1, A/WSN/33); assay: Efficacy on mice, IAV mouse infection model; format: in vivo, Female BALB/c mice; settings: 15 mpk orally twice a day; for Influenza Virus Titer in lung tissue: 15 mg/kg
Text: Female BALB/c mice were inoculated with influenza A virus (H1N1, A/WSN/33) by intranasal administration to establish an IAV mouse infection model. The vehicle, Compound III-2 (15 mpk) or oseltamivir phosphate (15 mpk) were orally administered twice a day. Animal weight and survival status were monitored daily during the test, and on the 5th day, some animals were killed to take lung tissue for virus titer detection, and the remaining mice were used for survival rate monitoring. The in vivo anti-influenza virus efficacy of the test compound was determined by virus titer in lung tissue, mouse body weight change and survival rate.

[3] = MDCK cells, A/PR/8/34 (H1N1), 5 days, CCK8, read-out: EC50

## O=C1c2c(O)c(=O)ccn2N([C@H]2c3ccccc3CSc3ccccc32)CN1C1CC2(CCC2)C1 [Compound I-1]
[1]; [3]
  EC50: 0.5 nM
In vitro
  CC50 at 5 days: > 1000 nM

## O=C1c2c(O)c(=O)ccn2N([C@@H]2c3ccccc3SCc3c2ccc(F)c3F)CN1C1CC2(CCC2)C1 [Compound I-5]
[1]; [3]
  EC50: 0.44 nM
In vitro
  CC50 at 5 days: > 1000 nM

## O=C1c2c(O)c(=O)ccn2N([C@@H]2c3ccccc3SCc3c2ccc(F)c3F)CN1CCOC1CC1 [Compound I-7]
[1]; [3]
  EC50: 0.83 nM
In vitro
  CC50 at 5 days: > 1000 nM

## O=C1c2c(O)c(=O)ccn2N([C@@H]2c3ccccc3SCc3c2ccc(F)c3F)CN1CCSC1CC1 [Compound I-8]
[1]; [3]
  EC50: 0.75 nM
In vitro
  CC50 at 5 days: > 1000 nM

## O=C1c2c(O)c(=O)ccn2N([C@H]2c3ccccc3CSc3ccccc32)CN1C1CC2(CC2)C1 [Compound I-9]
[1]; [3]
  EC50: 0.4 nM
In vitro
  CC50 at 5 days: > 1000 nM

## O=C1c2c(O)c(=O)ccn2N([C@H]2c3ccccc3CSc3ccccc32)CN1C1CC2(COC2)C1 [Compound I-10]
[1]; [3]
  EC50: 0.7 nM
In vitro
  CC50 at 5 days: > 1000 nM

## O=C1c2c(O)c(=O)ccn2N([C@@H]2c3ccccc3SCc3c2ccc(F)c3F)CN1C1CC2(CC2)C1 [Compound I-14]
[1]; [3]
  EC50: 0.32 nM
In vitro
  CC50 at 5 days: > 1000 nM

## O=C1c2c(O)c(=O)ccn2N([C@@H]2c3ccccc3SCc3cccc(F)c32)CN1C1CC2(CCC2)C1 [Compound I-21]
[1]; [3]
  EC50: 0.6 nM
In vitro
  CC50 at 5 days: > 1000 nM

## O=C1c2c(O)c(=O)ccn2N([C@@H]2c3ccccc3SCc3c2ccc(F)c3F)CN1C1C2CC1C2 (some centres unmarked) [Compound I-65]
[1]; [3]
  EC50: 0.37 nM
In vitro
  CC50 at 5 days: > 1000 nM

## O=C1c2c(O)c(=O)ccn2N([C@@H]2c3ccccc3SCc3c2ccc(F)c3F)CN1C1C2CC1C2F (some centres unmarked) [Compound I-66]
[1]; [3]
  EC50: 0.58 nM
In vitro
  CC50 at 5 days: > 1000 nM

## O=C1c2c(O)c(=O)ccn2N([C@H]2c3ccccc3CSc3ccccc32)CN1C12CC(C1)C2 [Compound I-69]
[1]; [3]
  EC50: 0.35 nM
In vitro
  CC50 at 5 days: > 1000 nM

## O=C1c2c(O)c(=O)ccn2N([C@@H]2c3ccccc3SCc3c2ccc(F)c3F)CN1C12CC(C1)C2 [Compound I-77]
[1]; [3]
  EC50: 0.16 nM
In vivo
  AUC(0-t): 307 ng·h/mL
  Vd: 2.77 L/kg
  clearance: 13 mL/min/kg
  half-life: 178 min
In vitro
  CC50 at 5 days: > 1000 nM

## O=C1c2c(O)c(=O)ccn2N([C@@H]2c3ccccc3SCc3c(F)cccc32)CN1C12CC(C1)C2 [Compound I-81]
[1]; [3]
  EC50: 0.19 nM
In vitro
  CC50 at 5 days: > 1000 nM

## O=C1c2c(O)c(=O)ccn2N([C@H]2c3ccc(F)cc3CSc3ccccc32)CN1C12CC(C1)C2 [Compound I-83]
[1]; [3]
  EC50: 0.21 nM
In vitro
  CC50 at 5 days: > 1000 nM

## O=C1c2c(O)c(=O)ccn2N([C@@H]2c3ccccc3SCc3cccc(F)c32)CN1C12CC(C1)C2 [Compound I-85]
[1]; [3]
  EC50: 0.18 nM
In vitro
  CC50 at 5 days: > 1000 nM

## O=C1c2c(O)c(=O)ccn2N([C@@H]2c3ccccc3SCc3cccc(Cl)c32)CN1C12CC(C1)C2 [Compound I-89]
[1]; [3]
  EC50: 0.17 nM
In vitro
  CC50 at 5 days: > 1000 nM

## O=C1c2c(O)c(=O)ccn2N([C@H]2c3ccccc3CSc3ccccc32)[C@@H]2COCC3(CC3)N12 [II-1]
[1]; MDCK
  EC50: 0.45 nM
In vitro
  CC50 at 5 days: > 1000 nM

## O=C1c2c(O)c(=O)ccn2N([C@H]2c3ccccc3CSc3ccccc32)[C@@H]2COC3(CC3)CN12 [II-2]
[1]; [3]
  EC50: 0.51 nM
In vitro
  CC50 at 5 days: > 1000 nM

## O=C1c2c(O)c(=O)ccn2N([C@@H]2c3ccccc3SCc3c2ccc(F)c3F)[C@@H]2COCC3(CC3)N12 [II-5]
[1]; MDCK
  EC50: 0.22 nM
In vivo
  AUC(0-t): 187 ng·h/mL
  Vd: 3.69 L/kg
  clearance: 20.9 mL/min/kg
  half-life: 149 min
In vitro
  CC50 at 5 days: > 1000 nM

## O=C1c2c(O)c(=O)ccn2N([C@@H]2c3ccccc3SCc3c2ccc(F)c3F)[C@@H]2COC3(CC3)CN12 [II-6]
[1]; [3]
  EC50: 0.26 nM
In vivo
  AUC(0-t): 276 ng·h/mL
  Vd: 3.12 L/kg
  clearance: 13.6 mL/min/kg
  half-life: 178 min
In vitro
  CC50 at 5 days: > 1000 nM

## O=C1c2c(O)c(=O)ccn2N([C@@H]2c3ccccc3SCc3c2ccc(F)c3F)[C@@H]2COC3(COC3)CN12 [II-7]
[1]; [3]
  EC50: 0.93 nM
In vitro
  CC50 at 5 days: > 1000 nM

## COCC1COC[C@@H]2N1C(=O)c1c(O)c(=O)ccn1N2[C@@H]1c2ccccc2SCc2c1ccc(F)c2F (some centres unmarked) [II-8]
[1]; [3]
  EC50: 0.47 nM
In vitro
  CC50 at 5 days: > 1000 nM

## O=C1c2c(O)c(=O)ccn2N([C@@H]2c3ccccc3SCc3c(F)cccc32)[C@@H]2COCC3(CC3)N12 [II-9]
[1]; MDCK
  EC50: 0.28 nM
In vitro
  CC50 at 5 days: > 1000 nM

## O=C1c2c(O)c(=O)ccn2N([C@@H]2c3ccccc3SCc3c(F)cccc32)[C@@H]2COC3(CC3)CN12 [II-10]
[1]; [3]
  EC50: 0.24 nM
In vitro
  CC50 at 5 days: > 1000 nM

## O=C1c2c(O)c(=O)ccn2N([C@H]2c3ccc(F)cc3CSc3ccccc32)[C@@H]2COCC3(CC3)N12 [II-13]
[1]; MDCK
  EC50: 0.38 nM
In vitro
  CC50 at 5 days: > 1000 nM

## O=C1c2c(O)c(=O)ccn2N([C@H]2c3ccc(F)cc3CSc3ccccc32)[C@@H]2COC3(CC3)CN12 [II-14]
[1]; [3]
  EC50: 0.31 nM
In vitro
  CC50 at 5 days: > 1000 nM

## O=C1c2c(O)c(=O)ccn2N([C@@H]2c3ccccc3SCc3cccc(F)c32)[C@@H]2COCC3(CC3)N12 [II-17]
[1]; MDCK
  EC50: 0.26 nM
In vitro
  CC50 at 5 days: > 1000 nM

## O=C1c2c(O)c(=O)ccn2N([C@@H]2c3ccccc3SCc3cccc(F)c32)[C@@H]2COC3(CC3)CN12 [II-18]
[1]; [3]
  EC50: 0.28 nM
In vitro
  CC50 at 5 days: > 1000 nM

## O=C1c2c(O)c(=O)ccn2N([C@@H]2c3ccccc3SCc3cccc(Cl)c32)[C@@H]2COC3(CC3)CN12 [II-22]
[1]; [3]
  EC50: 0.36 nM
In vitro
  CC50 at 5 days: > 1000 nM

## COCC1CN2C(=O)c3c(O)c(=O)ccn3N([C@@H]3c4ccccc4SCc4c3ccc(F)c4F)[C@@H]2CO1 (some centres unmarked) [II-29]
[1]; [3]
  EC50: 0.57 nM
In vitro
  CC50 at 5 days: > 1000 nM

## O=C1c2c(O)c(=O)ccn2N([C@@H]2c3ccccc3SCc3c2ccc(F)c3F)[C@@H]2CC(OC3CC3)CCN12 (some centres unmarked) [II-34]
[1]; [3]
  EC50: 0.39 nM
In vitro
  CC50 at 5 days: > 1000 nM

## C=C1CCN2C(=O)c3c(O)c(=O)ccn3N([C@@H]3c4ccccc4SCc4c3ccc(F)c4F)[C@@H]2C1 [II-65]
[1]; [3]
  EC50: 0.45 nM
In vitro
  CC50 at 5 days: > 1000 nM

## O=C1c2c(O)c(=O)ccn2N([C@@H]2c3ccccc3SCc3c2ccc(F)c3F)[C@@H]2CC=CCN12 [II-66]
[1]; [3]
  EC50: 0.18 nM
In vitro
  CC50 at 5 days: > 1000 nM

## O=C1c2c(O)c(=O)ccn2N([C@@H]2c3ccccc3SCc3c2ccc(F)c3F)[C@@H]2C/C(=C/F)CCN12 [II-67]
[1]; [3]
  EC50: 0.48 nM
In vitro
  CC50 at 5 days: > 1000 nM

## O=C1C2N(CC3CCCN13)C(=O)c1c(O)c(=O)ccn1N2[C@@H]1c2ccccc2SCc2c1ccc(F)c2F (some centres unmarked) [II-101]
[1]; [3]
  EC50: 0.94 nM
In vitro
  CC50 at 5 days: > 1000 nM

## CCOC(=O)C1=C[C@@H](OC(CC)CC)[C@H](NC(C)=O)[C@@H](N)C1 [Oseltamivir phosphate, oseltamivir phosphate, reference compound]
[2]; infected mice, during the experiment
  Body weight change: remained stable
[2]; infected mice, to the predetermined experimental end point
  Survival rate: 100%
[2]; mice, 5th day after infection
  Mean difference of virus titer compared with the solvent group: 3.46 Log 10 (number of plaques per gram of lung tissue)
  Influenza Virus Titer in lung tissue: 3.74 ± 0.5205 Log10 (plaques number/gram of
[2]; mice, 5th day after infection, listed as oseltamivir phosphate
  Influenza Virus Titer in lung tissue: 3.74 Log10 (plaques number/gram of

## O=C(O)[C@H]1C2CCC(CC2)[C@@H]1Nc1nc(-c2c[nH]c3ncc(F)cc23)ncc1F [VX-787, reference compound]
[1]; [3]
  EC50: 1.4 nM
In vitro
  CC50 at 5 days: > 100 nM
